Key:
[1] = biological target: T1, Adenosine receptor A3 (Homo sapiens, UniProt P0DMS8); assay: biochemical
T1 sequence (P0DMS8 whole entry): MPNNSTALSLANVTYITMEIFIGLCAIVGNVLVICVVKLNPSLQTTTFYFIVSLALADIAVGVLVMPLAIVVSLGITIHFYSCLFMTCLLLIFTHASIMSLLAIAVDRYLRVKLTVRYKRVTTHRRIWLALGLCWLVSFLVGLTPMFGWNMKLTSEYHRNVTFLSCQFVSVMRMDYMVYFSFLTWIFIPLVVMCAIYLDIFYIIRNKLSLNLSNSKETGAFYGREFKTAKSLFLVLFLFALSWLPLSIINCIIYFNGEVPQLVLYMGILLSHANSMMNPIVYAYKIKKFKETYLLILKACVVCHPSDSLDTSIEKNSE
Description: Binding affinity at cloned human adenosine A3 receptor expressed in HEK293 cells was determined using [125I]AB-MECA as radioligand

[2] = biological target: Adenosine receptor A2a (Rattus norvegicus, UniProt P30543); assay: Binding affinity was determined in radioligand binding assay at rat striatal Adenosine A2A receptor vs [3H]-CGS- 21680
Sequence of Adenosine receptor A2a (P30543 whole entry): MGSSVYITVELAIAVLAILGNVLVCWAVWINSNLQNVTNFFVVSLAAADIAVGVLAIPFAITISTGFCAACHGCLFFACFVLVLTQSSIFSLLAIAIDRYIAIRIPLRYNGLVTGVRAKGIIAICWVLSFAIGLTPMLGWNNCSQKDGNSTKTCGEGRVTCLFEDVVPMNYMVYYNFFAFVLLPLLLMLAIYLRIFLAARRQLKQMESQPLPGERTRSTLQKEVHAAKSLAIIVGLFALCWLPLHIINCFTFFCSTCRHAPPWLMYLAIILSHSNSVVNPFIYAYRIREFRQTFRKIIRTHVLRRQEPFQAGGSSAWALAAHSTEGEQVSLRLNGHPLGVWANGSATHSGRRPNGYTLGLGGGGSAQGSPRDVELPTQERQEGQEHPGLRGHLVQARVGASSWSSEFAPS

[3] = Ratio against rat A2A receptor and Human A3 receptor
[4] = biological target: T2, Adenosine receptor A2b (Homo sapiens) (UniProt P29275); assay: Inhibition at 50 uM on cAMP production induced by 50 uM 5`-(N-ethylcarboxamido)adenosine in CHO cell line transfected with human Adenosine A2B receptor cDNA; type: cell-based
T2 sequence (whole entry): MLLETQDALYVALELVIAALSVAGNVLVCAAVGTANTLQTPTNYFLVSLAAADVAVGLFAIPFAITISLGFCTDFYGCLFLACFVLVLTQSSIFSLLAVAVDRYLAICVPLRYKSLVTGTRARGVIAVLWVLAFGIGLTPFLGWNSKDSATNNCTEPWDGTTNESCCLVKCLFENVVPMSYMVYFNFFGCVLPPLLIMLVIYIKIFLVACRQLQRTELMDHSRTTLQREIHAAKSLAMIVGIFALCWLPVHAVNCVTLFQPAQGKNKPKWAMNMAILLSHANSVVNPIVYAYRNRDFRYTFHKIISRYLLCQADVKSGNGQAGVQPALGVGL

[5] = biological target: T3, Adenosine receptor A1 (Rattus norvegicus, UniProt P25099)
T3 sequence (P25099 whole entry): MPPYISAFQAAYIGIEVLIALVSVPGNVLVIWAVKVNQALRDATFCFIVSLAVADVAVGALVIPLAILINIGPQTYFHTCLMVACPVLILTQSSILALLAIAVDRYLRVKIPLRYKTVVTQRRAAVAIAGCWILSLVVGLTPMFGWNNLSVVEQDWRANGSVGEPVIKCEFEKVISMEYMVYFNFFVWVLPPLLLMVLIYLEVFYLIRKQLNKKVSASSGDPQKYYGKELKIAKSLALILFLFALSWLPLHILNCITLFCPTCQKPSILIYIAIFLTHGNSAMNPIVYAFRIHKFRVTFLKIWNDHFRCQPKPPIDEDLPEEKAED
Description: Binding affinity was determined in radioligand binding assay at rat brain adenosine A1 receptor vs [3H]R-PIA

[6] = Ratio against rat A1 receptor and Human A3 receptor
[7] = biological target: T4, Adenosine receptor A2b (Homo sapiens, UniProt P29275); assay: Inhibition of 50 uM 5`-(N-ethylcarboxamido)adenosine induced cAMP production in CHO cell line expressing human Adenosine A2B receptor; type: cell-based
T4 sequence (P29275 whole entry): T2 sequence (whole entry)

SMILES | Ki [1] | Ki [2] | Selectivity ratio [3] | inhibition [4] | Ki [5] | Selectivity ratio [6] | IC50 [7]
NCCCCCCC(=O)Nc1nc2ccc(Cl)cc2c2nc(-c3ccco3)nn12 | 346 nM | 55.9 nM | 0.16 | 75% | 114 nM | 0.33 | 
CCC(=O)Nc1nc2ccc(Cl)cc2c2nc(-c3ccco3)nn12 |  |  |  | 66% |  |  | 
C[C@H](C(=O)Nc1nc2ccc(Cl)cc2c2nc(-c3ccco3)nn12)c1ccccc1 | 0.362 nM | 11.1 nM | 31 |  | 46.2 nM | 130 | 
NCCCCC(=O)Nc1nc2ccc(Cl)cc2c2nc(-c3ccco3)nn12 | 57.9 nM | 1.13 nM | 0.02 | 100% | 6.99 nM | 0.12 | 1770 nM
Nc1ccc(CC(=O)Nc2nc3ccc(Cl)cc3c3nc(-c4ccco4)nn23)cc1I | 49.3 nM | 10.4 nM | 0.21 | 23% | 217 nM | 4.4 | 
COC(=O)CCC(=O)Nc1nc2ccc(Cl)cc2c2nc(-c3ccco3)nn12 | 55.1 nM | 28.8 nM | 0.52 |  | 71.8 nM | 1.3 | 
CC(C)(C)OC(=O)NCCC(=O)Nc1nc2ccc(Cl)cc2c2nc(-c3ccco3)nn12 | 6.71 nM | 7.58 nM | 1.1 |  | 31 nM | 4.6 | 
C[C@@H](NC(=O)OC(C)(C)C)C(=O)Nc1nc2ccc(Cl)cc2c2nc(-c3ccco3)nn12 | 46.3 nM | 18.8 nM | 0.41 |  | 48.6 nM | 1 | 
CC(C)(C)OC(=O)NCCCCC(=O)Nc1nc2ccc(Cl)cc2c2nc(-c3ccco3)nn12 | 22 nM | 3.64 nM | 0.17 |  | 30.1 nM | 1.4 | 
O=C(Cc1ccccc1)Nc1nc2ccc(Cl)cc2c2nc(-c3ccco3)nn12 |  | 10.3 nM |  | 71% | 52.7 nM |  | 
CC(C)(C)OC(=O)NCCCCCC(=O)Nc1nc2ccc(Cl)cc2c2nc(-c3ccco3)nn12 | 33.8 nM | 33.7 nM | 1 |  | 53.8 nM | 1.6 | 
CCCC(=O)Nc1nc2ccc(Cl)cc2c2nc(-c3ccco3)nn12 |  |  |  | 66% |  |  | 
NCCC(=O)Nc1nc2ccc(Cl)cc2c2nc(-c3ccco3)nn12 | 874 nM | 7.58 nM | 0.0088 | 83% | 89.8 nM | 0.1 | 13300 nM
C[C@@H](N)C(=O)Nc1nc2ccc(Cl)cc2c2nc(-c3ccco3)nn12 | 1140 nM | 29.7 nM | 0.026 |  | 193 nM | 0.17 | 
O=C(Nc1nc2ccc(Cl)cc2c2nc(-c3ccco3)nn12)c1cccc(I)c1 |  |  |  | 38% |  |  | 
CCO/C(O)=C1\C(C)=NC(c2ccccc2)=C(C(=O)OCc2ccc([N+](=O)[O-])cc2)C1C#Cc1ccccc1 (stereo unspecified) |  | > 100 nM |  |  | > 100 nM |  | 
O=C(CCc1ccccc1)Nc1nc2ccc(Cl)cc2c2nc(-c3ccco3)nn12 | 23.6 nM |  |  | 43% |  |  | 
O=C(/C=C/c1ccccc1)Nc1nc2ccc(Cl)cc2c2nc(-c3ccco3)nn12 | 72.1 nM | 59.8 nM | 0.71 | 38% | 282 nM | 3.9 | 
CCCn1c(=O)n2nc(-c3ccco3)nc2c2cc(Cl)ccc21 |  |  |  | 0% |  |  | 
CC(NC(=O)OC(C)(C)C)C(=O)Nc1nc2ccc(Cl)cc2c2nc(-c3ccco3)nn12 (stereo unspecified) | 82.9 nM | 6.65 nM | 0.08 |  | 54.7 nM | 0.66 | 
O=C(Cc1ccc(I)cc1)Nc1nc2ccc(Cl)cc2c2nc(-c3ccco3)nn12 | 62.9 nM | 9.93 nM | 0.16 | 42% | 13.8 nM | 0.22 | 
COC(=O)CCCCCCC(=O)Nc1nc2ccc(Cl)cc2c2nc(-c3ccco3)nn12 | 59 nM | 7.43 nM | 0.13 |  | 46.6 nM | 0.79 | 
CC(C)(C)OC(=O)NCCCCCCC(=O)Nc1nc2ccc(Cl)cc2c2nc(-c3ccco3)nn12 | 53.7 nM | 11.1 nM | 0.21 |  | 38.2 nM | 0.71 | 

SMILES | Ki [1] | Ki [2] | Selectivity ratio [3] | inhibition [4] | Ki [5] | Selectivity ratio [6] | IC50 [7]
Oc1nc2ccc(Cl)cc2c2nc(-c3ccco3)nn12 |  |  |  | 0% |  |  | 
O=C(CCCCC(=O)OCc1ccccc1)Nc1nc2ccc(Cl)cc2c2nc(-c3ccco3)nn12 | 44.7 nM | 16.7 nM | 0.37 |  | 304 nM | 6.8 | 
C[C@@H](C(=O)Nc1nc2ccc(Cl)cc2c2nc(-c3ccco3)nn12)c1ccccc1 | 0.468 nM | 20.1 nM |  |  | 37.5 nM |  | 
O=C(Nc1nc2ccc(Cl)cc2c2nc(-c3ccc(Br)o3)nn12)c1ccccc1 |  |  |  | 0% |  |  | 
CC(C)(C)OC(=O)Nc1nc2ccc(Cl)cc2c2nc(-c3ccco3)nn12 |  |  |  | 92% |  |  | 2410 nM
Nc1nc2ccc(Cl)cc2c2nc(-c3ccco3)nn12 [CGS-15943] |  | 3.3 nM |  | 100% |  |  | 
Clc1ccc2nc(NCc3ccccc3)n3nc(-c4ccco4)nc3c2c1 | 42.5 nM | 200 nM | 4.7 | 21% |  | 28 | 
Nc1ccc(CC(=O)Nc2nc3ccc(Cl)cc3c3nc(-c4ccco4)nn23)cc1 | 3.56 nM |  |  | 90% |  |  | 7400 nM
CC(C)(C)OC(=O)NCCCC(=O)Nc1nc2ccc(Cl)cc2c2nc(-c3ccco3)nn12 |  | 19.9 nM | 0.6 | 47% | 45.9 nM | 1.4 | 
O=C(Nc1nc2ccc(Cl)cc2c2nc(-c3ccco3)nn12)c1ccccc1 |  |  |  | 58% |  |  | 
NCCCCCC(=O)Nc1nc2ccc(Cl)cc2c2nc(-c3ccco3)nn12 | 213 nM | 10.3 nM | 0.048 | 79% | 99.6 nM | 0.47 | 
O=C(Cc1cccc(Cl)c1)Nc1nc2ccc(Cl)cc2c2nc(-c3ccco3)nn12 | 32.1 nM | 9.43 nM | 0.29 | 45% | 43 nM | 1.3 | 
Nc1nc2ccc(Cl)cc2c2nc(-c3ccc(Br)o3)nn12 |  |  |  | 16% |  |  | 
COc1ccc(CC(=O)Nc2nc3ccc(Cl)cc3c3nc(-c4ccco4)nn23)cc1 | 14.4 nM | 28 nM | 1.9 |  | 30.2 nM | 2.1 | 
CCO/C(O)=C1\C(C)=NC(c2ccccc2)=C(C(=O)OCc2ccccc2)C1C#Cc1ccccc1 (stereo unspecified) |  | > 100 nM |  |  |  |  | 
CC(C(=O)Nc1nc2ccc(Cl)cc2c2nc(-c3ccco3)nn12)(c1ccccc1)c1ccccc1 | 194 nM | 453 nM | 2.3 |  | 890 nM | 4.6 | 
CC(C)(C)C(=O)Nc1nc2ccc(Cl)cc2c2nc(-c3ccco3)nn12 |  |  |  | 89% |  |  | 2400 nM
O=C(Nc1nc2ccc(Cl)cc2c2nc(-c3ccco3)nn12)C(c1ccccc1)c1ccccc1 | 0.586 nM | 12.1 nM | 21 |  | 129 nM | 220 | 
CC(=O)Nc1nc2ccc(Cl)cc2c2nc(-c3ccco3)nn12 |  |  |  | 92% |  |  | 2650 nM
CCCCC(=O)Nc1nc2ccc(Cl)cc2c2nc(-c3ccco3)nn12 |  |  |  | 79% |  |  | 
O=C(Cc1cccc(I)c1)Nc1nc2ccc(Cl)cc2c2nc(-c3ccco3)nn12 | 882 nM | 9.67 nM | 0.011 |  | 45.4 nM | 0.051 | 
C[C@H](N)C(=O)Nc1nc2ccc(Cl)cc2c2nc(-c3ccco3)nn12 | 1200 nM | 143 nM | 0.12 |  | 390 nM | 0.33 | 
O=C(Cc1ccccc1I)Nc1nc2ccc(Cl)cc2c2nc(-c3ccco3)nn12 | > 10000 nM | 17.2 nM | < 1 |  | 2300 nM | < 1 | 
